Here are results for 1 compound from patent US10968183B2, “Small molecule FIEL1 inhibitor in inflammatory and fibrotic lung injury” (UNIVERSITY OF PITTSBURGH—OF THE COMMONWEALTH SYSTEM OF …, priority 2015, dated 2021).

SMILES strings stand for the structures. “Also recorded” adds a separate entry of the source. Bounds are passed on as bounds.

One test concerns JAK/STAT pathway. As to the kind of experiment: JAK/STAT protein immunoblotting in HCT8 cells exposed to DSS or IFNγ. Type of test: cell-based. Here is the method: HCT8 cells were pretreated with BC-1485 at different concentrations for 16 h before exposed to DSS (2%, 16 h) or IFNγ (10 ng/ml, 1 h). Cells were collected and assayed for protein immunoblotting.
(In general: Immunoblotting shows a protein as a band on a membrane.)

Test [1] deals with α-SMA expression in MRC5 cells. Nature of the test: α-SMA expression in MRC5 cells co-treated with TGFβ. It counts as cell-based, human. How it is done:
FIG. 15A. Diagram of the BC-1485 synthesis process. FIGS. 15B-15C. Docking studies of the lead compound, BC-1485, interacting with the FIEL1-HECT domain. FIG. 15D. MRC5 cells were treated with the compound at various doses; cells were also co-treated with TGFβ at 2 ng/ml. 18 h later, cells were collected and assayed for α-SMA expression. FIG. 15E. MRC5 cells were seeded in 35 mm glass bottom dishes before co-treatment with TGFβ at 2 ng/ml and BC-1480 or BC1485 at 5μM. FIG. 15F. PIAS4 protein half-life determination after BC-1480 or BC1485 treatment at 5μM for 18 h. FIG. 15G. PIAS4 and KIAA0317 mRNA analysis after BC1485 treatment for 18 h.
MLE cells were cultured in Dulbecco's Modified Eagle Medium-F12 (Gibco) supplemented with 10% fetal bovine serum (DMEM-10). 293T cells were cultured in Dulbecco's Modified Eagle Medium (Gibco) supplemented with 10% fetal bovine serum (DMEM-10). MRC5 cells were cultured in Eagle's Minimum Essential Medium (Gibco) supplemented with 10% fetal bovine serum (EMEM-10). For protein expression in MLE cells, nucleofection was used following Amaxa's protocol. For protein overexpression in 293T cells, Fugene6HD transfection reagents were used following the manufacturer's protocol. For protein expression in MRC5 cells, MRC-5 Cell Avalanche™ Transfection Reagent was used following manufacturer's protocol. Cells were treated with TGFβ at 0-2 ng/ml for 0-18 h. For FIEL1, PKCξ, or GSK3β knockdown studies in cells, scramble shRNA, KIAA0317, PKCξ, or GSK3β shRNA were used to transfect cells for 48 h. For drug treatment, compounds were solubilized in DMSO before being added to the cells for up to 18 h. Cell lysates were prepared by brief sonication in 150 mM NaCl, 50 mM Tris, 1.0 mM EDTA, 2 mM dithiothreitol, 0.025% sodium azide, and 1 mM phenylmethylsulfonyl fluoride (Buffer A) at 4° C. For half-life study, MLE cells were exposed to cycloheximide (40 μg/ml) in a time dependent manner for up to 8 h. Cells were then collected and immunoblotted.

The target of a further test is T1, FIEL1 (Mus musculus, UniProt Q8CHG5).
T1 construct: endogenous in cells; host or cells: MLE (murine lung epithelial) cells
T1 sequence (Q8CHG5 1-789): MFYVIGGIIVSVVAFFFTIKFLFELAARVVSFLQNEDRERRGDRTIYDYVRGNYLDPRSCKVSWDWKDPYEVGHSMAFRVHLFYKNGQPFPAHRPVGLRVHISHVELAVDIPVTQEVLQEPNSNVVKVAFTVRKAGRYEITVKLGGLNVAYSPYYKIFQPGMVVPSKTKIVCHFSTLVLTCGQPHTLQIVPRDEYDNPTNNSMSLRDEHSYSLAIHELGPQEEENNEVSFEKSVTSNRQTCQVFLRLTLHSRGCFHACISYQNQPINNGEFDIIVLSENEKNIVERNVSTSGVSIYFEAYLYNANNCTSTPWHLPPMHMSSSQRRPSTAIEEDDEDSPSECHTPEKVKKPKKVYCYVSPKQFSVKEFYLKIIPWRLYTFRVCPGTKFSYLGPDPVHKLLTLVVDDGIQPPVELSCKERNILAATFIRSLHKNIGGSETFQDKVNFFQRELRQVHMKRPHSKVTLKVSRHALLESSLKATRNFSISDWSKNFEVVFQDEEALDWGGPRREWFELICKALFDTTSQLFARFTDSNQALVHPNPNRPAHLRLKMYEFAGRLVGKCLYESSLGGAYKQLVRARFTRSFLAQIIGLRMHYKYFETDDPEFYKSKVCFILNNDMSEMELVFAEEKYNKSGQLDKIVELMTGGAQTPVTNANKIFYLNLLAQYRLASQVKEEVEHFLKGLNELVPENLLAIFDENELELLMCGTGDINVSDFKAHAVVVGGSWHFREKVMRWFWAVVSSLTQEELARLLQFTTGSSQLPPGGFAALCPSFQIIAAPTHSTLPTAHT
Nature of the test: PIAS4 protein immunoblot in MLE cells exposed to compounds. It counts as cell-based, murine. The following applies: 18 h, FIG. 7D. Here is the method:
FIG. 7A. […] FIG. 7B. Structures of the BC-1480 backbone and lead compound BC-1485. FIG. 7C. FIEL1 protein was HIS-purified from FIEL1 expression in 293T cells using cobalt beads. Beads were then extensively washed prior to exposure to BC-1480 or BC-1485 at different concentrations (10^−4 to 100 μM). Purified PIAS4 protein was then incubated with drug-bound FIEL1 beads overnight. Beads were washed, and proteins were eluted and resolved on SDS-PAGE. The relative amounts of PIAS4 detected in the pull-downs was normalized to loading and quantified (n=2). FIG. 7D. MLE cells were exposed to BC-1480 or BC-1485 at various concentrations for 18 h. Cells were then collected and immunoblotted. FIGS. 7E-J. C57BL/6J mice were administered with bleomycin (0.05 U) for 7-21 days. Compounds BC-1480 and BC-1485 were given to mice through drinking water with an estimated dose of 5 mg/kg/d. Mice were euthanized, and lungs were lavaged with saline, harvested, and then homogenized. Lavage proteins, CXCL1, and total cell count were measured in FIGS. 7E-G. H. Survival studies of mice that were given bleomycin and compound treatments. Mice were carefully monitored over time; moribund, preterminal animals were immediately euthanized and recorded as deceased. […] Hydroxyproline contents were measured in lungs from 7, 14, and 21d after bleomycin challenge. […]

[2] abbreviates: 16 h pretreatment, then DSS 2% 16 h or IFNγ 10 ng/ml 1 h.

The IC50 is the point on the concentration scale where inhibition reaches its midpoint. In the case of `CC(NC(=O)c1ccc(NS(=O)(=O)c2ccc3[nH]c(=O)[nH]c3c2)cc1)C(=O)N(C)C` (centres unmarked) [BC-1485], the JAK/STAT pathway signaling result with JAK/STAT pathway is recorded as “inhibits the signaling transduction; also recorded: inhibits JAK/STAT pathway”. Besides, in the test with JAK/STAT pathway (setting [2]), the JAK1 protein level entry was “effectively decreases”, the JAK2 protein level result is recorded as “effectively decreases”, the p-Stat1 protein level entry is “effectively decreases” and the p-Stat3 protein level entry is given as “effectively decreases”. Also, in test [1] (FIG. 15), the “inhibition of TGFβ pathway” value is reported as “inhibition of TGFβ pathway”. Besides, in test [1] (MRC5 cells, TGFβ 2 ng/ml, 18 h, FIG. 15D, read-out: IC50 for decrease of α-SMA expression), the 50% inhibitory concentration (IC50) is roughly 32 nM. Further, at FIEL1, the “activity in increasing PIAS4 protein levels compared to BC-1480” value is given as greater than 100 fold.
